For 16 compounds, IC50 and Activity results are on record in ChEMBL document CHEMBL3739329, “Synthesis and biological evaluation of nitric oxide-releasing hybrids from gemcitabine and phenylsulfonyl furoxans as anti-tumor agents” (Medchemcomm, 2015).

Data set [1] is described as follows: Cytotoxicity against human SGC7901 cells assessed as inhibition of cell proliferation after 48 hrs by MTT assay. It counts as functional, cell-based. To be noted: SGC-7901, 48 h. On the technique in general: Tetrazolium dyes change colour on reduction, which living cells bring about.
In data set [2] the test system is HepG2. Put plainly: Cytotoxicity against human HepG2 cells assessed as inhibition of cell proliferation after 48 hrs by MTT assay. It counts as functional, cell-based. To be noted: HepG2, 48 h.
The nature of data set [3]: Cytotoxicity against human HCT116 cells assessed as inhibition of cell proliferation after 48 hrs by MTT assay. Conditions: HCT-116, 48 h. It counts as functional, cell-based.
A short description of data set [4]: Cytotoxicity against human SW620 cells assessed as inhibition of cell proliferation after 48 hrs by MTT assay. To be noted: SW-620, 48 h. It counts as functional, cell-based.
Data set [5] concerns A549. Put plainly: Cytotoxicity against human A549 cells assessed as inhibition of cell proliferation after 48 hrs by MTT assay. Conditions: A549, 48 h. It counts as functional, cell-based.
The subject of data set [6] is HepG2. Put plainly: Induction of NO production in human HepG2 cells at 100 uM incubated for 24 hrs by Griess assay. It is filed as functional, cell-based. In general terms: The Griess reaction detects nitrite, a stable product of nitric oxide.
The test system of data set [7] is HCT-116. Put plainly: Induction of NO production in human HCT116 cells at 100 uM incubated for 24 hrs by Griess assay. It counts as functional, cell-based.
In data set [8] the test system is SW-620. Put plainly: Induction of nitrite/nitrate production in human SW620 cells at 100 uM incubated for 24 hrs by Griess assay. It counts as functional, cell-based.
For data set [9], the system named is HepG2. Put plainly: Induction of nitric oxide release in human HepG2 cells at 6 uM incubated for 24 hrs by DAF-FM DA staining-based flow cytometric analysis. It is filed as functional, cell-based.
In data set [10] the test system is SW-620. Put plainly: Induction of nitric oxide release in human SW620 cells at 6 uM incubated for 24 hrs by DAF-FM DA staining-based flow cytometric analysis. It is filed as functional, cell-based.
Data set [11] relates to HCT-116. Put plainly: Induction of nitric oxide release in human HCT116 cells at 6 uM incubated for 24 hrs by DAF-FM DA staining-based flow cytometric analysis. It counts as functional, cell-based. A general note: In flow cytometry, cells or beads pass a laser one at a time.
The nature of data set [12]: Cytotoxicity against human LO2 cells assessed as inhibition of cell proliferation after 48 hrs by MTT assay. To be noted: l02, 48 h. It counts as cell-based.
Data set [13] concerns HepG2. Put plainly: Cytotoxicity against human HepG2 cells assessed as inhibition of cell proliferation at 0.5 to 50 uM after 48 hrs in presence of dipyridamole by MTT assay. It counts as functional, cell-based.
Data set [14] deals with HepG2. Put plainly: Induction of nitric oxide release in human HepG2 cells incubated for 24 hrs by DAF-FM DA staining-based flow cytometric analysis. It is filed as functional, cell-based.
Data set [15] deals with HepG2. Put plainly: Cytotoxicity against human HepG2 cells assessed as inhibition of cell proliferation at 2 to 4 uM after 48 hrs in presence of haemoglobin. It counts as functional, cell-based.
Data set [16] deals with HepG2. Put plainly: Induction of apoptosis in human HepG2 cells at 2 uM incubated for 48 hrs by FITC-Annexin V/PI staining-based flow cytometric analysis. It counts as functional.
Data set [17] concerns HepG2. Put plainly: Induction of apoptosis in human HepG2 cells incubated for 48 hrs by FITC-Annexin V/PI staining-based flow cytometric analysis. It is filed as functional, cell-based.
Data set [18] concerns HepG2. Put plainly: Induction of apoptosis in human HepG2 cells assessed as reduction in Bcl-2 protein level incubated for 48 hrs by Western blot analysis. It counts as functional, cell-based.
For data set [19], the system named is HepG2. Put plainly: Induction of apoptosis in human HepG2 cells assessed as increase in Bax protein level incubated for 48 hrs by Western blot analysis. It is filed as functional, cell-based.
Data set [20] relates to HepG2. Put plainly: Induction of apoptosis in human HepG2 cells assessed as increase in activated caspase-3 protein level at 0.5 to 2 uM incubated for 48 hrs by Western blot analysis. It is filed as functional, cell-based.
Data set [21] deals with HepG2. Put plainly: Induction of apoptosis in human HepG2 cells assessed as reduction in PARP-1 protein level at 2 uM incubated for 48 hrs by Western blot analysis. It counts as functional, cell-based.
Data set [22] has as its system HCT-116. Put plainly: Induction of nitric oxide release in human HCT116 cells incubated for 24 hrs by DAF-FM DA staining-based flow cytometric analysis. It is filed as functional, cell-based.
The test system of data set [23] is SW-620. Put plainly: Induction of nitric oxide release in human SW620 cells incubated for 24 hrs by DAF-FM DA staining-based flow cytometric analysis. It is filed as functional, cell-based.
For data set [24], the system named is HepG2. Put plainly: Induction of apoptosis in human HepG2 cells assessed as reduction in PARP-1 protein level at 0.5 to 2 uM incubated for 48 hrs by Western blot analysis. It counts as functional, cell-based.

Calls of active or inactive are those of the source. No cut-off for these calls is given here.

Broadly, the IC50 is the concentration that gives 50% inhibition.

Consider `O=C(CCC(=O)OCCOc1no[n+]([O-])c1S(=O)(=O)c1ccccc1)Nc1ccn([C@@H]2O[C@H](CO)[C@@H](O)C2(F)F)c(=O)n1`, for which the IC50 is > 12.5 µM in [1]; > 12.5 µM in data set [2]; 10.3 µM in data set [3]; > 12.5 µM in data set [4]; > 12.5 µM in data set [5].
For the compound `CN(CCOc1no[n+]([O-])c1S(=O)(=O)c1ccccc1)C(=O)CCC(=O)Nc1ccn([C@@H]2O[C@H](CO)[C@@H](O)C2(F)F)c(=O)n1`, the IC50 worked out at 5.85 µM in data set [1]; 8.39 µM in data set [2]; 10.8 µM in data set [3]; 5.21 µM in data set [4]; 10.1 µM in data set [5].
Taken in the same sequence, the figures for `O=C(CCC(=O)Nc1ccn([C@@H]2O[C@H](CO)[C@@H](O)C2(F)F)c(=O)n1)NCCOc1no[n+]([O-])c1S(=O)(=O)c1ccccc1` were 9.92 µM, 10.5 µM, > 12.5 µM, 9.16 µM and > 12.5 µM.
As for `O=C(CCC(=O)OCCCCOc1no[n+]([O-])c1S(=O)(=O)c1ccccc1)Nc1ccn([C@@H]2O[C@H](CO)[C@@H](O)C2(F)F)c(=O)n1`, the IC50 in data set [1] was found to be 6.13 µM; in data set [2] it was 2.44 µM; in data set [3], 3.57 µM; in data set [4], 2.49 µM; in data set [5] it was 5.18 µM. In addition, the result in data set [6], in [7] and in data set [8] was Active.
Turning to `O=C(CCC(=O)Nc1ccn([C@@H]2O[C@H](CO)[C@@H](O)C2(F)F)c(=O)n1)NCCCCCOc1no[n+]([O-])c1S(=O)(=O)c1ccccc1`, the IC50 was 11.8 µM in data set [1]; 10.7 µM in data set [2]; > 12.5 µM in data set [3]; > 12.5 µM in data set [4]; > 12.5 µM in [5].
On to `CCOC(=O)N1CCN(/[N+]([O-])=N/Oc2ccc([N+](=O)[O-])cc2[N+](=O)[O-])CC1`, for which the IC50 in data set [2] was 7.42 µM; in data set [3], 3.75 µM; in [4], 5.16 µM. For the same compound, the outcome in data set [9], in data set [10] and in data set [11] was Active.
Regarding `O=C(CCC(=O)Oc1ccc(CCOc2no[n+]([O-])c2S(=O)(=O)c2ccccc2)cc1)Nc1ccn([C@@H]2O[C@H](CO)[C@@H](O)C2(F)F)c(=O)n1`, the IC50 in data set [1] was > 12.5 µM; in data set [2] it was 9.21 µM; in data set [3], 8.78 µM; in data set [4], > 12.5 µM; in data set [5], > 12.5 µM.
Consider `O=C(CCC(=O)Nc1ccn([C@@H]2O[C@H](CO)[C@@H](O)C2(F)F)c(=O)n1)NCCCOc1no[n+]([O-])c1S(=O)(=O)c1ccccc1`, for which the IC50 in data set [1] came out at 6.71 µM; in data set [2] it was 6.18 µM; in data set [3], 4.1 µM; in [4], 4.97 µM; in data set [5], 8.9 µM. Moreover, the result in [6], in data set [7] and in [8] was Active.
With `O=C(CCC(=O)OCC#CCOc1no[n+]([O-])c1S(=O)(=O)c1ccccc1)Nc1ccn([C@@H]2O[C@H](CO)[C@@H](O)C2(F)F)c(=O)n1`, the IC50 in data set [1] stood at 1.36 µM; in [2], 1.02 µM; in data set [3] it was 1.19 µM; in [4], 1.3 µM; in data set [5] it was 3.27 µM. The Activity result in [12] was “Non-toxic”; in data set [14] it was “Dose-dependent effect”; in [16], 78.3%; in data set [18], “Dose-dependent effect”; in data set [19], “Dose-dependent effect”; in data set [22], “Dose-dependent effect”. The Activity result in data set [23] was “Dose-dependent effect”. In addition, the result in data set [13], in [6], in [7], in [8], in [17] and in data set [20] was Active. For the same compound, the outcome in [21] and in data set [24] was Active. Besides, in [15], the result was inactive.
As to `O=C(O)CCC(=O)OCC#CCOc1no[n+]([O-])c1S(=O)(=O)c1ccccc1`, the IC50 in [1] was 11.5 µM; in [2] it was 8.73 µM; in data set [3], 9.86 µM; in data set [4], 9.09 µM; in data set [5], > 12.5 µM.
For the compound `O=C(CCC(=O)OCCCCCOc1no[n+]([O-])c1S(=O)(=O)c1ccccc1)Nc1ccn([C@@H]2O[C@H](CO)[C@@H](O)C2(F)F)c(=O)n1`, the half-inhibitory concentration (IC50) was 10.5 µM in data set [1]; > 12.5 µM in [2]; 11.3 µM in data set [3]; 9.67 µM in data set [4]; > 12.5 µM in data set [5].
In the case of `Nc1ccn([C@@H]2O[C@H](CO)[C@@H](O)C2(F)F)c(=O)n1` [GEMCITABINE], the IC50 in data set [1] worked out at 3.58 µM; in data set [2] it was 2.97 µM; in data set [3], 7.33 µM; in [4], 5.62 µM; in [5] it was 2.69 µM. For the same compound, the outcome in [13], in data set [6], in data set [7] and in [8] was inactive. For the same compound, the outcome in [16] and in data set [21] was Active.
`O=C(CCC(=O)OCCCOc1no[n+]([O-])c1S(=O)(=O)c1ccccc1)Nc1ccn([C@@H]2O[C@H](CO)[C@@H](O)C2(F)F)c(=O)n1`: the IC50 in data set [1] came to 9.26 µM; in data set [2], 5.32 µM; in data set [3], 6.89 µM; in [4], 5 µM; in [5], 9.92 µM. The result in data set [6], in [7] and in data set [8] was Active.
Turning to `O=C(CCC(=O)Nc1ccn([C@@H]2O[C@H](CO)[C@@H](O)C2(F)F)c(=O)n1)NCCCCOc1no[n+]([O-])c1S(=O)(=O)c1ccccc1`, the IC50 turned out to be 5.1 µM in data set [1]; 3.22 µM in [2]; 3.06 µM in data set [3]; 4.35 µM in data set [4]; 6.04 µM in [5]. Further, the result in [6], in data set [7] and in [8] was Active.
Regarding `O=C(CCC(=O)OCCOCCOc1no[n+]([O-])c1S(=O)(=O)c1ccccc1)Nc1ccn([C@@H]2O[C@H](CO)[C@@H](O)C2(F)F)c(=O)n1`, the IC50 in data set [1] is 10.7 µM; in [2], 7.05 µM; in data set [3] it was 7.86 µM; in data set [4], > 12.5 µM; in data set [5], 11.5 µM.
For `CC(CCOC(=O)CCC(=O)Nc1ccn([C@@H]2O[C@H](CO)[C@@H](O)C2(F)F)c(=O)n1)Oc1no[n+]([O-])c1S(=O)(=O)c1ccccc1` (stereo partly drawn), the IC50 in data set [1] was 7.44 µM; in data set [2], 3.25 µM; in data set [3] it was 4.69 µM; in data set [4], 3.98 µM; in data set [5], 7.82 µM. Also, the outcome in data set [6], in [7] and in [8] was Active.
